Reference: paper PMC8199339, “Propellanes as Rigid Scaffolds for the Stereodefined Attachment of σ-Pharmacophoric Structural Elements to Achieve σ Affinity” (International Journal of Molecular Sciences, 2021)
Where two headings read alike, the source gives them in different places.

Experiments:
σ1 receptor = target: T1, σ1 receptor (Cavia porcellus, UniProt Q60492); assay: σ1 receptor binding assay, radioligand [3H]-(+)-pentazocine, guinea pig brain membrane preparation; conditions: for inhibition at 1 µM / inhibition of the radioligand binding, σ1: test compound concentration of 1 µM
T1 construct: thawed membrane preparation of guinea pig brain; tissue Harlan-Winkelmann, Borchen, Germany (animal organs); host or cells: guinea pig brain membrane homogenate
T1 sequence (Q60492 whole entry): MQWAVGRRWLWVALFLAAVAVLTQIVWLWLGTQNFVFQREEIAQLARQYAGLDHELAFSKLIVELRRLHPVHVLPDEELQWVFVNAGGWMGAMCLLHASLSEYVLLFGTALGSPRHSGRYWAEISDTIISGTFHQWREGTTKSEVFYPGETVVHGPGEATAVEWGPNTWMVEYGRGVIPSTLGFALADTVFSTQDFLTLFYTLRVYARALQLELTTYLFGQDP

σ2 receptor = target: T2, σ2 receptor (Rattus norvegicus, UniProt Q5U3Y7); assay: σ2 receptor binding assay, radioligand [3H]di-o-tolylguanidine, rat liver membrane preparation; conditions: for Ki: read-out: Ki (nM) σ2; for inhibition at 1 µM / inhibition of the radioligand binding, σ2: test compound concentration of 1 µM
T2 construct: The thawed rat liver membrane preparation; tissue Harlan-Winkelmann, Borchen, Germany (animal organs); host or cells: rat liver membrane homogenate
T2 sequence (Q5U3Y7 1-176): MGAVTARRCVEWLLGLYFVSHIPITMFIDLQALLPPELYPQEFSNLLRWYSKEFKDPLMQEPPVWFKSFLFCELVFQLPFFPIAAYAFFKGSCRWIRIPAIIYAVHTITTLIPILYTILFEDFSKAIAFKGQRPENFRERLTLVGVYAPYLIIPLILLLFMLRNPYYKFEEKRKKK

[1] = [3H]-(+)-pentazocine, guinea pig brain, mean of three experiments (± SEM), values without SEM mean of two, read-out: Ki (nM) σ1
[2] = approximate statement in text, read-out: σ1 affinity, Ki (in the range of)

SMILES	inhibition at 1 µM (σ1 receptor)	Ki (σ1 receptor; [1])	inhibition at 1 µM (σ2 receptor)	also measured
COc1ccc(C)cc1NC(=O)OC1CC23CCCCC2(CC(Nc2ccc(N)cc2)C3)C1 (stereo not drawn) [8-anti-4o, [(8-anti-11-anti and 8-anti-11-syn)-11-(4-Aminophenylamino)[4.3.3]propellan-8-yl] N-(2-methoxy-5-methylphenyl)carbamate]	16%	–	–	Ki (σ2 receptor): 12000 nM
COc1ccc(C)cc1NC(=O)OC1CC23CCCCC2(CC(NCCc2c[nH]c4ccccc24)C3)C1 (stereo not drawn) [8-syn-4k, [(8-syn-11-syn and 8-syn-11-anti)-11-[(2-(Indol-3-yl)ethylamino][4.3.3]propellan-8-yl] N-(2-methoxy-5-methylphenyl)carbamate]	–	983 nM	–	Ki (σ2 receptor): 1400 nM
COc1ccc(C)cc1NC(=O)OC1CC23CCCCC2(CC(NCc2ccc(N(C)C)cc2)C3)C1 (stereo not drawn) [8-anti-4h, [(8-anti-11-anti and 8-anti-11-syn)-11-[(4-Dimethylamino)benzylamino]-[4.3.3]propellan-8-yl] N-(2-methoxy-5-methylphenyl)carbamate]	0%	–	0%	–
COc1ccc(C)cc1NC(=O)OC1CC23CCCCC2(CC(NCCc2ccccc2)C3)C1 (stereo not drawn) [8-anti-4p, [(8-anti-11-anti and 8-anti-11-syn)-11-(Phenethylamino)[4.3.3]propellan-8-yl] N-(2-methoxy-5-methylphenyl)carbamate]	–	668 nM	0%	–
c1ccc(CNC2CC34CCCCC3(C2)CC2(C4)OCCO2)cc1 (stereo not drawn) [anti-14, (11′-anti)-Spiro-([1,3]dioxolane-2,8′-(N-benzyl[4.3.3]propellan))-11′-amine]	–	1400 nM	–	inhibition of the radioligand binding, σ2 (σ2 receptor; 1 µM): 0%
COc1ccc(C)cc1NC(=O)N(Cc1ccccc1)C1CC23CCCCC2(CC(O)C3)C1 (stereo not drawn) [anti,syn-22, 1-benzyl-1-{(8-anti,11-syn)-11-hydroxy[4.3.3]propellan-8-yl}-3-(2-methoxy-5-methylphenyl)urea]	0%	–	–	inhibition of the radioligand binding, σ2 (σ2 receptor; 1 µM): 17%
COc1ccc(C)cc1NC(=O)OC1CC23CCCCC2(CC(NCCCCCO)C3)C1 (stereo not drawn) [8-anti-4t, [(8-anti-11-anti and 8-anti-11-syn)-11-(5-Hydroxypentylamino)[4.3.3]propellan-8-yl] N-(2-methoxy-5-methylphenyl)carbamate]	–	454 nM	2%	–
NC1CC23CCCCC2(CCC3)C1 (centres unmarked) [compound 16]	5%	–	13%	–
COc1ccc(C)cc1NC(=O)N(Cc1ccccc1)C1CC23CCCCC2(CC(O)C3)C1 (stereo not drawn) [syn,syn-22, 1-benzyl-1-{(8-syn,11-syn)-11-hydroxy[4.3.3]propellan-8-yl}-3-(2-methoxy-5-methylphenyl)urea]	–	–	–	inhibition of the radioligand binding, σ1 (σ1 receptor): 0%; inhibition of the radioligand binding, σ2 (σ2 receptor; 1 µM): 0%
COc1ccc(NC2CC34CCCCC3(C2)CC(OC(=O)Nc2cc(C)ccc2OC)C4)cc1Cl (stereo not drawn) [8-anti-4n, [(8-anti-11-anti and 8-anti-11-syn)-11-(3-Chloro-4-methoxyphenylamino)-[4.3.3]propellan-8-yl] N-(2-methoxy-5-methylphenyl)carbamate]	0%	–	0%	–
COc1ccc(C)cc1NC(=O)OC1CC23CCCCC2(CC(NCc2ccc(OC)c(OC)c2)C3)C1 (stereo not drawn) [8-anti-4b, [(8-anti-11-anti and 8-anti-11-syn)-11-(3,4-Dimethoxbenzylamino)[4.3.3]propellan-8-yl] N-(2-methoxy-5-methylphenyl)carbamate]	6%	–	1%	–
O=C1CC23CCCCC2(C1)CC(NC(=O)Nc1ccc(F)c(F)c1)C3 (stereo not drawn) [anti-25, 1-(3,4-Difluorophenyl)-3-(8-anti-11-oxo[4.3.3]propellan-8-yl)urea]	–	–	–	inhibition of the radioligand binding, σ1 (σ1 receptor; 1 µM): 0%; inhibition of the radioligand binding, σ2 (σ2 receptor): 0%
COc1ccc(C)cc1NC(=O)OC1CC23CCCCC2(CC(NCc2ccc(Cl)cc2)C3)C1 (stereo not drawn) [8-anti-4c, [(8-anti-11-anti and 8-anti-11-syn)-11-(4-Chlorobenzylamino)[4.3.3]propellan-8-yl] N-(2-methoxy-5-methylphenyl)carbamate]	6%	–	12%	–
COc1ccc(C)cc1NC(=O)OC1CC23CCCCC2(CC(NCc2ccc([N+](=O)[O-])cc2)C3)C1 (stereo not drawn) [8-anti-4g, [(8-anti-11-anti and 8-anti-11-syn)-11-(4-Nitrobenzylamino)[4.3.3]propellan-8-yl] N-(2-methoxy-5-methylphenyl)carbamate]	24%	–	–	Ki (σ2 receptor): 1950 nM
OC1CC23CCCCC2(C1)CC(NCc1ccccc1)C3 (mixture of isomers) [11-syn-13, [(8-syn-11-syn and 8-syn-11-anti)-11-(Benzylamino)[4.3.3]propellan-8-ol]	–	619 nM	27%	–
COc1ccc(C)cc1NC(=O)OC1CC23CCCCC2(CC(NCC(C)C)C3)C1 (stereo not drawn) [8-anti-4u, [(8-anti-11-anti and 8-anti-11-syn)-11-(Isobutylamino)[4.3.3]propellan-8-yl] N-(2-methoxy-5-methylphenyl)carbamate]	5%	–	–	Ki (σ2 receptor): 854 nM
COc1ccc(C)cc1NC(=O)OC1CC23CCCCC2(CC(NCc2ccco2)C3)C1 (mixture of isomers) [8-anti-4i, [(8-anti-11-anti and 8-anti-11-syn)-11-[(Furan-2-yl-mehtyl)amino][4.3.3]propellan-8-yl] N-(2-methoxy-5-methylphenyl)carbamate]	–	924 nM	–	Ki (σ1 receptor; [2]): ~1000 nM; Ki (σ2 receptor): > 6000 nM
COc1ccc(C)cc1NC(=O)OC1CC23CCCCC2(CC(NCc2ccc(Cl)c(Cl)c2)C3)C1 (stereo not drawn) [8-anti-4d, [(8-anti-11-anti and 8-anti-11-syn)-11-(3,4-Dichlorobenzylamino)[4.3.3]propellan-8-yl] N-(2-methoxy-5-methylphenyl)carbamate]	0%	–	4%	–
COc1ccc(C)cc1NC(=O)N(Cc1ccccc1)C1CC23CCCCC2(CC(O)C3)C1 (stereo not drawn) [syn,anti-22, 1 -Benzyl-1-{(8-syn,11-anti)-11-hydroxy[4.3.3]propellan-8-yl}-3-(2-methoxy-5-methylphenyl)urea]	–	–	–	inhibition of the radioligand binding, σ1 (σ1 receptor): 0%; inhibition of the radioligand binding, σ2 (σ2 receptor; 1 µM): 8%
c1ccc(CNC2CC34CCCCC3(CCC4)C2)cc1 (centres unmarked) [compound 8]	–	594 nM	39%	reduction of σ1 affinity compared to azapropellane 9a (σ1 receptor; compared to 9a): 35 fold; selectivity for the σ1 receptor over the σ2 receptor (σ1 receptor; σ1 over σ2): at least 10 fold
COc1ccc(C)cc1NC(=O)OC1CC23CCCCC2(CC(Nc2ccccc2)C3)C1 (stereo not drawn) [8-anti-4l, [(8-anti-11-anti and 8-anti-11-syn)-11-(Phenylamino)[4.3.3]propellan-8-yl] N-(2-methoxy-5-methylphenyl)carbamate]	13%	–	0%	–
COc1ccc(C)cc1NC(=O)OC1CC23CCCCC2(CC(NCCCc2ccccc2)C3)C1 (stereo not drawn) [8-anti-4q, [(8-anti-11-anti and 8-anti-11-syn)-11-(3-Phenylpropylamino)[4.3.3]propellan-8-yl] N-(2-methoxy-5-methylphenyl)carbamate]	22%	–	0%	–
COc1ccc(C)cc1NC(=O)OC1CC23CCCCC2(CC(NCc2ccco2)C3)C1 (mixture of isomers) [8-syn-4i, [(8-syn-11-syn and 8-syn-11-anti)-11-[(Furan-2-yl-mehtyl)amino][4.3.3]propellan-8-yl] N-(2-methoxy-5-methylphenyl)carbamate]	–	276 nM	0%	–
COc1ccc(C)cc1NC(=O)OC1CC23CCCCC2(CC(NCCO)C3)C1 (stereo not drawn) [8-anti-4s, [(8-anti-11-anti and 8-anti-11-syn)-11-(2-Hydroxyethyl-1-amino)[4.3.3]propellan-8-yl] N-(2-methoxy-5-methylphenyl)carbamate]	12%	–	0%	–
O=C1CC23CCCCC2(C1)CC(NC(=O)Nc1ccc(F)c(F)c1)C3 (stereo not drawn) [syn-25, 1-(3,4-. Difluorophenyl)-3-(8-syn-11-oxo[4.3.3]propellan-8-yl)urea]	–	–	0%	inhibition of the radioligand binding, σ1 (σ1 receptor; 1 µM): 10%
COc1ccc(C)cc1NC(=O)OC1CC23CCCCC2(CC(NCc2ccc(C)cc2C)C3)C1 (stereo not drawn) [8-anti-4e, [(8-anti-11-anti and 8-anti-11-syn)-11-(2,4-Dimethylbenzylamino)[4.3.3]propellan-8-yl] N-(2-methoxy-5-methylphenyl)carbamate]	0%	–	–	Ki (σ2 receptor): 1100 nM
COc1ccc(C)cc1NC(=O)OC1CC23CCCCC2(CC(NCc2cc(C(F)(F)F)cc(C(F)(F)F)c2)C3)C1 (stereo not drawn) [8-anti-4f, [(8-anti-11-anti and 8-anti-11-syn)-11-[(3,5-Bis(trifluoromethyl)benzylamino]-[4.3.3]propellan-8-yl] N-(2-methoxy-5-methylphenyl)carbamate]	0%	–	0%	–
COc1ccc(C)cc1NC(=O)OC1CC23CCCCC2(CC(NCCc2c[nH]c4ccccc24)C3)C1 (stereo not drawn) [8-anti-4k, [(8-anti-11-anti and 8-anti-11-syn)-11-[2-(Indol-3-yl)ethylamino][4.3.3]propellan-8-yl] N-(2-methoxy-5-methylphenyl)carbamate]	–	1200 nM	0%	Ki (σ1 receptor; [2]): ~1000 nM
COc1ccc(NC2CC34CCCCC3(C2)CC(OC(=O)Nc2cc(C)ccc2OC)C4)cc1 (stereo not drawn) [8-anti-4m, [(8-anti-11-anti and 8-anti-11-syn)-11-(4-Methoxyphenylamino)[4.3.3]propellan-8-yl] N-(2-methoxy-5-methylphenyl)carbamate]	11%	–	0%	–
